Results from patent US8431131B2, “CD38 and obesity” (Mayo Foundation for Medical Education and Research, priority 2007, dated 2013).

What was measured:
[1] = test system: high fat diet-induced obesity; assay: High fat diet-induced obesity in mice; type: in vivo; conditions: 30 mg/kg/day intraperitoneal, two weeks of HFD
Protocol: FIG. 9. […] Wild type mice were treated with resveratrol (a SIRT stimulator), and CD38 (−/−) mice were treated with Sirtinol (a SIRT antagonist) during 2 weeks of high fat diet. […] The number of animals in each group was between four and six.
Metabolic Studies and Diet At one year of age, CD38 (−/−) mice were placed on either a normal caloric diet (NCD; diet number 3807, KLIBA-NAFAG) or an HFD (AIN-93G modified to provide 60% of calories from fat, Researchdiets) ad libitum and monitored for six weeks. Body weight was recorded weekly, and food intake was measured for seven consecutive days. Oxygen consumption and energy expenditure (ER) measurements were performed in mice fed HFD for four weeks, and quantification of blood metabolites were performed. For the experiments using resveratrol and sirtinol, the HFD was supplemented with daily intraperitoneal injections of 30 mg/kg of drug (or vehicle) for two weeks. Cultured Smooth Muscle Cells from Wild-Type and CD38 Knockout Mice
Wild type mice were treated with 30 mg/kg/day of resveratrol, and CD38 (−/−) were treated with the same dose of sirtinol to determine the role of the SIRT enzymes upon high fat diet-induced obesity.

ADP ribosyl cyclase = ADP ribosyl cyclase activity (cADPR synthesis) in liver plasma membranes using NGD as substrate; type: biochemical, mice; conditions: 100 μM test drug
Protocol: (§1) FIG. 8. The effect of resveratrol and sirtinol upon the cADPR system. In A, ADP ribosyl cyclase activity was measured in liver plasma membranes using NGD as a substrate. Mice were treated with 100 μM of a test drug: DTT (dithiothreitol), resverastrol (Resv), or sirtinol. The control mice received no addition. Similar results were obtained using purified Aplysia ADPribosyl cyclase. In B, cADPR-induced Ca^2+ was measured in sea urchin egg homogenates. Ca^2+ was induced by 100 nM of cADPR with no further additions, or with 1 minute pre-incubation of 100 μM of the testing drugs 8-Br-cADPR (8-Br), resveratrol (Resv), or sirtinol. In C, experiments were conducted in smooth muscle cells in culture as described in FIG. 1E. Four to six hours before fixation and staining with acetylated P53 antibody, cells were treated with 100 μM of the testing drugs. 3-Deaza-cADPR is a cell permeable cADPR agonist. […] All experiments were repeated three to four times. The asterisk denotes significant differences between control and treatment.
ADP-ribosyl cyclase polypeptide activity was measured using the NGD technique as described herein, and NADase polypeptide activity was determined using etheno-NAD as described elsewhere (Johnson et al., Diabetes, 55:2737-2746 (2006)). […] Activity was determined by measuring the change in fluorescence over time at 300 nm excitation and 410 nm emission.

acetylated P53 = assay: Acetylated p53 immuno-staining in cultured smooth muscle cells (measure of endogenous SIRT activity); type: cell-based, mice; conditions: 100 μM, four to six hours
Protocol: as §1
For experiments, cells were made quiescent by replacing the growth medium with SmBM without serum or growth factors. Cell medium was again replaced with SmBM containing testing agents solubilized in 0.1% DMSO or water added to the final concentrations.
Smooth muscle cells were obtained as described above. Cells were fixed in suspension in PBS plus 2% paraformaldehyde for 20 minutes at room temperature with constant agitation, and cells were washed three times for 10 minutes with TBS-Triton X-100 (0.1%). After that, cells were incubated in blocking buffer (TBS, 30 mM glycine, and 5% BSA) for 60 minutes and incubated with anti-acetylated p53 rabbit polyclonal antibody (1:1000) (Abcam, Inc.; Cambridge, Mass.) overnight at 4° C. with constant agitation. […]
Laser confocal images were obtained using the Olympus Fluoview laser scanning confocal microscopy, with objective Olympus UplanApo oil, 100×, 1.35 numerical aperture. Nuclei were excited at 543 nm, and their emission recorded at 570 nm.

SIRT1 = molecular target: T1, SIRT1 (Homo sapiens, UniProt Q96EB6); assay: Effect of CD38 metabolites on SIRT1 activity; type: biochemical
T1 construct: purchased Biomol International, LP
T1 sequence (Q96EB6 1-747): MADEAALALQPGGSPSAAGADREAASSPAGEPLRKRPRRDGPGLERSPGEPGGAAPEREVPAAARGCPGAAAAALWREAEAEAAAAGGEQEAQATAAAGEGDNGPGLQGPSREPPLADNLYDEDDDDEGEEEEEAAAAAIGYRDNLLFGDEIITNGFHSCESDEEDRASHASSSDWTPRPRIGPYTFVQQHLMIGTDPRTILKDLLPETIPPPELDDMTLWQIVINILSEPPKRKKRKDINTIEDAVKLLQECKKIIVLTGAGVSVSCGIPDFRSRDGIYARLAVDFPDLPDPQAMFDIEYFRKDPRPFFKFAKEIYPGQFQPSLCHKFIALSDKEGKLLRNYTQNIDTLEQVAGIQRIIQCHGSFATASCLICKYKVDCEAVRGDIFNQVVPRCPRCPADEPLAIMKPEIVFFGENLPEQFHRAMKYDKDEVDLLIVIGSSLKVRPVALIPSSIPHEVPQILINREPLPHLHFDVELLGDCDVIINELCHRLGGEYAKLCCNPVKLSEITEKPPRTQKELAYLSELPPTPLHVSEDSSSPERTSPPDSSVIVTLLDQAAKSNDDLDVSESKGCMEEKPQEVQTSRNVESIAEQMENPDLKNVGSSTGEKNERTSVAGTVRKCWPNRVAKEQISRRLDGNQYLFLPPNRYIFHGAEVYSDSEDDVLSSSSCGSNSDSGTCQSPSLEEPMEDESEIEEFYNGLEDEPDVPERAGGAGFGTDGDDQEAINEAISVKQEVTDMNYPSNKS
Protocol: SIRT1 polypeptide activity was determined using the SIRT1 Fluorimetric Kit (Biomol International, LP; Plymouth Meeting, Pa.) according to the manufacturer's instructions. Briefly, nuclei prepared from wild-type or CD38 knockout mice (1 μg protein/well) were incubated in 40 mM Tris-HCl (pH 7.4) containing human recombinant SIRT1 (1 U/assay), 500 μM NAD+, and 100 μM Flour de Lys-SIRT1 substrate for 30 minutes at 37° C. Following incubation, the reaction was terminated by addition of a solution containing Flour de Lys Developer and 2 mM nicotinamide. Values were determined by reading fluorescence on a fluorimetric plate reader (Spectramax Gemini XPS; Molecular Devices; Sunnyvale, Calif.) with an excitation wavelength of 360 nm and emitted wavelength of 460 nm. Calculation of net fluorescence expressed as percent of control included the subtraction of a blank consisting of buffer containing no NAD+. Endogenous SIRT polypeptide activity was determined as described above with the exception that no recombinant SIRT enzyme was added to the reaction mixture and that the nuclear preparations were sonicated before the assay. The data were expressed as NAD stimulated deacetylation.
CD38 metabolites were tested for an effect on SIRT1 activity.

[2] = test system: Ca2+ release induced by oxytocin; assay: Oxytocin-induced Ca2+ release in smooth muscle cells (control experiments); type: cell-based, mice; conditions: same conditions as p53 experiment
[3] = test system: cADPR-induced Ca2+ release; assay: cADPR-induced Ca2+ release in sea urchin egg homogenates; type: biochemical, Lytechinus pictus; conditions: 100 nM cADPR, 1 minute pre-incubation with 100 μM drug
Protocol: as §1, with “Similar results were obtained using purified Aplysia ADPribosyl cyclase.” left out, “treatment. cADPR-induced Ca^2+ release was determined in sea urchin egg homogenates using fluo-3 as a Ca^2+ indicator as described elsewhere (Chini, Braz. J. Med. Biol. Res., 35:543-547 (2002)). […] Fluo-3 fluorescence was monitored at 490 nm excitation and 535 nm emission in a 250-μL cuvette, held at 17° C. with a circulating water bath and continuously mixed with a magnetic stirring bar, in a Hitachi spectrofluorometer (F-2000).” for “treatment.”

CD38 polypeptide = molecular target: T2, CD38 polypeptide (Homo sapiens, UniProt P28907); assay: CD38 NADase activity assay with etheno-NAD as substrate; type: biochemical; conditions: 1 mM, 10 minutes incubation
T2 sequence (P28907 1-300): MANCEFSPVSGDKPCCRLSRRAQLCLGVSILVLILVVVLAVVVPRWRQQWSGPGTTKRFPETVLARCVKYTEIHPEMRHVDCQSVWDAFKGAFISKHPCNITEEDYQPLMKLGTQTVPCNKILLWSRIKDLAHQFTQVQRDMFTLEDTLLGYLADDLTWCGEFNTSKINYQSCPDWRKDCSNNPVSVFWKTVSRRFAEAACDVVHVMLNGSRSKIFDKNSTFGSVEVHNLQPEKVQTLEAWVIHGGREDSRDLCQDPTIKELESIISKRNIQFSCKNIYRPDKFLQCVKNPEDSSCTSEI
Excerpt: Agents that can inhibit CD38 expression or activity in cells can be identified by screening candidate agents (e.g., from synthetic compound libraries and/or natural product libraries). Candidate agents can be obtained from any commercial source and can be chemically synthesized using methods that are known to those of skill in the art. Candidate agents can be screened and characterized using in vitro cell-based assays, cell free assays, and/or in vivo animal models. For example, a CD38 NADase assay can be used to identify CD38 antagonists. NADase activity can be determined using etheno-NAD. Enzyme preparations (e.g., purified CD38) can be incubated in a medium containing, for example, 0.2 mM […], 0.25 M sucrose, and 40 mM Tris-HCl (pH 7.2) at 37° C. NADase activity can be determined by measuring the change in fluorescence over time at, for example, 300 nm excitation and 410 nm emission. Candidate agents can be added to the CD38 assay, and a decrease of the NADase activity compared to control can be determined. […]
ADP-ribosyl cyclase polypeptide activity was measured using the NGD technique as described herein, and NADase polypeptide activity was determined using etheno-NAD as described elsewhere (Johnson et al., Diabetes, 55:2737-2746 (2006)). […] Activity was determined by measuring the change in fluorescence over time at 300 nm excitation and 410 nm emission. […]

## CC(NC(=O)c1ccccc1/N=C/c1c(O)ccc2ccccc12)c1ccccc1 (centres unmarked) [sirtinol]
[1]; CD38 (−/−) mice
  protective effect of CD38 knock out upon high fat diet-induced obesity: abrogated
  weight gain compared with vehicle treated CD38 (−/−) mice: gained a statistically significant amount of weight
ADP ribosyl cyclase
  effect upon cADPR synthesis (ADP ribosyl cyclase activity): nor sirtinol (a SIRT inhibitor) exhibited any effect
Acetylated P53; smooth muscle cells from CD38 (−/−) mice
  acetylated p53 level: increased acetylated p53

## NC(=O)c1ccc[n+]([C@@H]2O[C@H](COP(=O)([O-])OP(=O)(O)OC[C@H]3O[C@@H](n4cnc5c(N)ncnc54)[C@H](O)[C@@H]3O)[C@@H](O)[C@H]2O)c1 [NAD]
SIRT1
  effect on SIRT1 activity: exhibited an effect

## 3-Deaza-cADPR
[2]
  effect on oxytocin-induced Ca2+ release: increased oxytocin effect

## N=c1c2nc(Br)n3c2ncn1C1OC(COP(=O)(O)OP(=O)(O)OCC2OC3C(O)C2O)C(O)C1O (centres unmarked) [8-Br-cADPR]
[2]
  effect on oxytocin-induced Ca2+ release: blocked Ca^2+ release induced by oxytocin
Acetylated P53; smooth muscle cells
  levels of p53 acetylation in cells: neither the cell permeable cADPR antagonist (8-br-cADPR) nor the cADPR agonist (3-deaza-cADPR) had any effect

## Oc1ccc(C=Cc2cc(O)cc(O)c2)cc1 [resveratrol]
[3]
  effect upon cADPR-induced Ca2+ release: Neither resveratrol (a SIRT activator) nor sirtinol (a SIRT inhibitor) exhibited any effect
[1]; wild type mice
  protection against high fat diet-induced obesity: protected against high fat induced obesity
ADP ribosyl cyclase
  effect upon cADPR synthesis (ADP ribosyl cyclase activity): Neither resveratrol (a SIRT activator) nor sirtinol (a SIRT inhibitor) exhibited any effect
Acetylated P53; smooth muscle cells from wild type mice
  acetylated p53 level: decreased acetylated p53

## NC(=O)c1cccnc1 [nicotinamide]
CD38 polypeptide
  CD38 NADase activity: substantial inhibition
SIRT1
  effect on SIRT1 activity: exhibited an effect
